Five compounds from ChEMBL document CHEMBL3621171, “Synthesis and evaluation of 8,4'-dideshydroxy-leinamycin revealing new insights into the structure-activity relationship of the anticancer natural product leinamycin” (Bioorg Med Chem Lett, 2015) can be followed below.

One may read the EC50 as the concentration at which the effect is half-maximal.

What all share (format): functional, cell-based
The test system of one assay is Raji. As to the kind of experiment: Cytotoxicity against human Raji cells after 4 days by MTT assay. The settings on record: 96 h. (In general: Tetrazolium assays rely on reduction of a dye to a coloured formazan, in cell work by metabolically active cells.)
A short description of assay [1]: Cytotoxicity against human SKBR cells after 4 days by MTT assay. The settings on record: 96 h.
Another assay concerns A-375. As to the kind of experiment: Cytotoxicity against human A375 cells after 4 days by MTT assay. The note with it: A-375, 96 h.
Another assay concerns MDA-MB-231. In words: Cytotoxicity against human MDA-MB-231 cells after 4 days by MTT assay. The note with it: MDA-MB-231, 96 h.
The next assay has as its system T47D. In words: Cytotoxicity against human T47D cells after 4 days by MTT assay. The settings on record: 96 h.
Another assay deals with MCF7. As to the kind of experiment: Cytotoxicity against human MCF7 cells after 4 days by MTT assay. The settings on record: MCF7, 96 h.

As to `C/C1=C\CC(=O)/C=C/C=C\c2csc(n2)[C@@H](C)NC(=O)C[C@@]2(CC1)SC(=O)[C@@H]2C`, the EC50 with Raji was greater than 10000 nM; in assay [1], 7370 nM; with A-375, greater than 10000 nM; in the assay on MDA-MB-231, 1950 nM; with T47D, greater than 10000 nM; in the assay on MCF7, 8560 nM.
On to `C/C1=C\CC(=O)/C=C/C=C\c2csc(n2)[C@@H](C)NC(=O)C[C@@](S)([C@@H](C)C(=O)O)CC1`, for which the EC50 (in the assay on Raji; in assay [1]; in the assay on A-375; with MDA-MB-231; in the assay on T47D; with MCF7) was greater than 10000 nM throughout.
Regarding `C/C1=C\CC(=O)/C=C/C=C\c2csc(n2)[C@@H](C)NC(=O)C[C@]2(CC1)[C@@H](C)C(=O)S[S+]2[O-]` (stereo not given in full), the EC50 turned out to be 8.21 nM in the assay with Raji; 251 nM in assay [1]; 12.5 nM with A-375; 71.4 nM with MDA-MB-231; 196 nM with T47D; 275 nM in the assay on MCF7.
As to `C/C1=C\[C@@H](O)C(=O)/C=C/C=C\c2csc(n2)[C@@H](C)NC(=O)C[C@@]2(CC1)[S+]([O-])SC(=O)[C@]2(C)O` (stereo not given in full) [LEINAMYCIN], the EC50 is 6.29 nM in the assay on Raji; 52.3 nM in assay [1]; 4.69 nM with A-375; 8.99 nM in the assay with MDA-MB-231; 15.2 nM in the assay with T47D; 42.4 nM in the assay with MCF7.
Consider `C/C1=C\CC(=O)/C=C/C=C\c2csc(n2)[C@@H](C)NC(=O)C[C@@]2(CC1)SSC(=O)[C@@H]2C`, for which the EC50 in the assay on Raji was 48.7 nM; in assay [1], greater than 10000 nM; in the assay with A-375, greater than 10000 nM; in the assay with MDA-MB-231, greater than 10000 nM; in the assay on T47D it was greater than 10000 nM; in the assay on MCF7, greater than 10000 nM.
